Values after ≈ are worked out from the molar mass of the structure shown.
Assays:
[1] = test system: Mycobacterium tuberculosis; test: Antitubercular activity against Mycobacterium tuberculosis H37Rv; format: functional; conditions: for MIC: Mycobacterium tuberculosis, H37Rv
[2] = Lipophilicity, log P of the compound; conditions: octanol/water, logP

Structure (SMILES)	log(1/MIC) [1]	MIC [1] [mg/L]	logP [2]
Cc1cc(C(=O)NN)ccn1	0.1045	0.79 (≈ 5.23 µM)	-1.67
CCc1cc(C(=O)NN)ccn1	-0.5423	3.49 (≈ 21.1 µM)	-1.14

Reference: ChEMBL document CHEMBL3091347, “Comparison of Multiple Linear Regressions and Neural Networks based QSAR models for the design of new antitubercular compounds” (Eur J Med Chem, 2013)
